In patent publication US20200157151A1, “PEPTIDE COMPOUNDS, CONJUGATE COMPOUNDS AND USES THEREOF FOR TREATING INFLAMMATORY DISEASES” (TRANSFERT PLUS, S.E.C., priority 2017, published 2020):
Square brackets hold non-standard residues; d marks the D form. Peptide text beside a SMILES is read from it. Nle = CCCC[C@H](N)C(=O)O

Assays:
[1] = test system: human HT-29 colorectal cancer cells; assay: Time-course uptake by flow cytometry (cell-associated fluorescence); format: cell-based; conditions: 5 μM, 37° C., HT-29 cells, FIG. 4B
Procedure: FIG. 4 is a series of charts illustrating higher and sustained uptake of KBC-201 (FIG. 4A). At the same concentration (5 μM), KBC-201 generates about half the fluorescence compared to free curcumin (Ex.: 488 nm, Em.: 530 nm) (FIG. 4B). Time-course uptake of KBC-201 (full line) and free curcumin (dotted line) in human HT-29 colorectal cancer cells. HT-29 cells were incubated at 37° C. with 5 μM of KBC-201 or curcumin at various times, trypsinized, washed, and cell-associated fluorescence uptake was quantified using a BD Accuri™ C6 flow cytometer.
(§1) The uptake of Curcumin conjugate or free Curcumin was measured as a function of time in human HT-29 colon cancer cells (FIG. 4). […] Indeed, the Curcumin conjugate (KBC-201) is less fluorescent by about 2-3 folds when compared to free Curcumin. […] The uptake of both KBC-201 and free Curcumin was next measured in the presence of Sortilin ligands (FIG. 5B). […] Taken together, data of the pharmacological inhibition using Sortilin ligands and the silencing of Sortlin expression confirm that the Curcumin conjugate is internalized via a Sortilin-dependent mechanism.

Sortilin receptor = biological target: T1, Sortilin receptor (Homo sapiens, UniProt Q99523); assay: Sortilin-mediated uptake in HT-29 cells (siRNA silencing and competition with Sortilin ligands); format: cell-based; conditions: 5 μM; for Uptake when Sortilin expression is reduced by siRNA: 2 h, 37° C., siSortilin vs siScrambled HT-29 cells, FIG. 5A; for Uptake in the presence of Sortilin ligands: excess free peptide (50 μM), neurotensin (10 μM) or progranulin (1 nM), HT-29 cells, FIG. 5B
T1 construct: Sortilin-deficient (siSortilin) HT-29 colorectal cancer cells; endogenous in cells; host or cells: HT-29 human colorectal cancer cells
T1 sequence (Q99523 78-831): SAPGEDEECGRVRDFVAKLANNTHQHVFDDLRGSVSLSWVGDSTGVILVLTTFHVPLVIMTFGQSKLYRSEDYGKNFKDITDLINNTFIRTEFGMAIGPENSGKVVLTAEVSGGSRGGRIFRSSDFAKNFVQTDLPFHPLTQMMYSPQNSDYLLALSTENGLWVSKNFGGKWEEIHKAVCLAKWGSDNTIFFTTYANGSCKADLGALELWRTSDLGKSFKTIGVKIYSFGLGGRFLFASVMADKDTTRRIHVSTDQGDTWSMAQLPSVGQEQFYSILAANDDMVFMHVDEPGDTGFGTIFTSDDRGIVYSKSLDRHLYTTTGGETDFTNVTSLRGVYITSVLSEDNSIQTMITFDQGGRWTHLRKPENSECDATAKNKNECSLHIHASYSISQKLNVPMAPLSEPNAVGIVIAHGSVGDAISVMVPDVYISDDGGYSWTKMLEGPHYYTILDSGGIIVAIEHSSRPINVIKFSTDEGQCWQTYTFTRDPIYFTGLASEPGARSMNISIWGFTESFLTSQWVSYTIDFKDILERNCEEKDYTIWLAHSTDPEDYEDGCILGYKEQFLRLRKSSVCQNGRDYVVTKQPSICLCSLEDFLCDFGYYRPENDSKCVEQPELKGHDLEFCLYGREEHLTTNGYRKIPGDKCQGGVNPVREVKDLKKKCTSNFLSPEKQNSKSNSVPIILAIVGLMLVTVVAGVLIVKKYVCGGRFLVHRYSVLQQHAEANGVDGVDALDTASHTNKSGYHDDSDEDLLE
Procedure: FIG. 5 is a series of charts showing Sortilin-mediated uptake of KBC-201 in human colorectal cancer cells, FIG. 5A) Uptake of 5 μM of KBC-201 or free curcumin were performed at 37° C. in control (siScrambled) or Sortilin-deficient (siSortilin) HT-29 colorectal cancer cells. After a 2 h incubation, cells were trypsinized to remove non-internalized products, washed 3-times with ice-cold PBS and cell-associated fluorescence was quantified using a BD Accuri™ C6 flow cytometer. […] Cell-associated fluorescence uptake was quantified using a BD Accuri™ C6 flow cytometer.
as §1

[2] = Stability at room temperature followed by absorbance over time; conditions: FIG. 11
Excerpt: FIG. 11 is a graph showing absorbance of Curcumin conjugates and free Curcumin.

[3] = biological target: T2, Human recombinant Sortilin chimera protein (Homo sapiens, UniProt Q99523); assay: Surface plasmon resonance (Biacore) interaction with immobilized Sortilin; format: binding; conditions: SPR; for Affinity for Sortilin, in words: comparison between peptides and Sortilin ligands
T2 construct: unnamed fusion partner or tag ('chimera'); purchased R&D Systems 3154-ST
T2 sequence (Q99523 78-755 limits assumed): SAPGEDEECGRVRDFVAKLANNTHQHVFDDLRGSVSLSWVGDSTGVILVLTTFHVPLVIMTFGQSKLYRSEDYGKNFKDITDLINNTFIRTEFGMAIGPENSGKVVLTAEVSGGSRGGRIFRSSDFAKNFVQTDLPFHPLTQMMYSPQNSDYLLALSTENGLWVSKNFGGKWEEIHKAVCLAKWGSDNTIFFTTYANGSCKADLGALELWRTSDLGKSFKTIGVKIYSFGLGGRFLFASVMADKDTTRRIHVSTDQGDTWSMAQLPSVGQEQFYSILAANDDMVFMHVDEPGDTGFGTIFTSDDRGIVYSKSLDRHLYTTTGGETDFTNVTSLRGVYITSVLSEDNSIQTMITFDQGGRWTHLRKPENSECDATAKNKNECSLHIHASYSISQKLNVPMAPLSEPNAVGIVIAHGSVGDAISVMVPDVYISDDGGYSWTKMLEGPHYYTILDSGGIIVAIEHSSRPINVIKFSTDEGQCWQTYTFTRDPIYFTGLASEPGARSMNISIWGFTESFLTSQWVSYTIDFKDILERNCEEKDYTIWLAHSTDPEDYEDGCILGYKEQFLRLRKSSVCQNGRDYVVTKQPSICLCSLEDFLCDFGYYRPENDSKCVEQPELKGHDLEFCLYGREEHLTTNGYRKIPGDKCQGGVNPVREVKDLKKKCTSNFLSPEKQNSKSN
Excerpt: FIG. 12 is schematic representation of real time interaction analysis using Surface Plasmon Resonance (SPR) and a Biacore instrument.
Further tests were made so as to investigate interaction of the peptide compounds of the present disclosure with Sortilin. Such tests were made using real-time surface plasmon resonance (Biacore) (see FIG. 12).

[4] = test system: TNF-α-induced NFκB phosphorylation in human MDA-MB231 breast cancer cells; assay: Inhibition of TNF-α-induced NFκB phosphorylation in MDA-MB231 cells; format: cell-based; conditions: 24 h pre-treatment, 100 ng/mL TNF-α 5 min, MDA-MB231, FIG. 18
Excerpt: FIG. 9A) Immunodetection of phosphorylated NFκB by TNF-α is shown.
FIGS. 9 and 10 are other examples of the Curcumin conjugate (KBC-201)'s effect on the TNF-α-induced signaling pathways in two other cancer cell models.
Results presented in FIGS. 18A and 18B show now that the peptide alone (KBP-201) can reduce the TNF-α-induced NFκB phosphorylation by about 30%.
In FIG. 18A, immunodetection of NFκB phosphorylation by TNF-α is shown.

[5] = test system: TNF-α-induced IκB phosphorylation in human HT-29 colon cancer cells; assay: Inhibition of TNF-α-induced IκB phosphorylation in HT-29 cells; format: cell-based; conditions: 24 h pre-treatment, 100 ng/mL TNF-α 5 min, HT-29, FIG. 17; at a lower concentration than Curcumin
Excerpt: FIG. 8A) Immunodetection of IκB phosphorylation by TNF-α is shown.
One of the inflammatory pathways induced by TNF-α leads to the phosphorylation of IkB (FIG. 1), a key protein in inflammation. As expected, the addition of TNF-α to human HT-29 colon cancer cells triggered the phosphorylation of IkB (pIkB) (FIG. 8).
One of the inflammatory pathways induced by TNF-α leads to the phosphorylation IkB (see FIG. 1), a key protein in inflammation. It was observed that the addition of TNF-α to human HT-29 colon cancer cells triggered the phosphorylation of IkB (pIkB) (FIGS. 17A and 17B).

[6] = test system: TNF-α-induced COX-2 expression in human HT-29 colon cancer cells; conditions: 2 h pre-treatment, 10 ng/mL TNF-α 24 h, HT-29, FIG. 7
Procedure: (§2) Cells were pre-treated for 2 h with indicated compounds in serum-free medium before the addition of 10 ng/mL TNF-α for 24 h. Cells were lysed and the levels protein expression of COX-2 were monitored by immunoblotting. […] For each sample, the COX-2 level was corrected for GAPDH (a loading control) and normalized to those seen in TNF-α control (value=100%).
as §2, with “the” for “the levels”, “expression levels” for “expression”

COc1cc(/C=C/C(=O)CC(=O)/C=C/c2ccc(O)c(OC)c2)ccc1O [Curcumin, reference compound]
Uptake over time (cell-associated fluorescence) ([1]; listed as free Curcumin): transient and low intracellular accumulation | Uptake over time (cell-associated fluorescence) ([1]; listed as free curcumin): transient uptake | Uptake when Sortilin expression is reduced by siRNA (Sortilin receptor; listed as free Curcumin): unaffected | Uptake when Sortilin expression is reduced by siRNA (Sortilin receptor; listed as free curcumin): not that of free curcumin | Uptake in the presence of Sortilin ligands (Sortilin receptor; listed as free Curcumin): unaffected by none of them | Uptake in the presence of Sortilin ligands (Sortilin receptor; listed as free curcumin): not that of free curcumin | Stability (absorbance over time) [2]: decreased more rapidly over time

CCCC[C@H](NC(=O)[C@H](CC(N)=O)NC(=O)[C@H](CCCNC(=N)N)NC(=O)[C@@H](NC(=O)CNC(=O)[C@H](C)NC(=O)[C@H](CCCCN)NC(=O)[C@H](C)NC(=O)[C@H](CCCNC(=N)N)NC(=O)[C@@H](NC(=O)CNC(C)=O)C(C)C)C(C)C)C(=O)N[C@@H](Cc1ccccc1)C(=O)N[C@@H](CCCCN)C(=O)N[C@@H](CO)C(=O)N[C@@H](CCC(=O)O)C(=O)N[C@@H](CO)C(=O)N[C@@H](Cc1ccc(O)cc1)C(=O)O [KBP-106] (Ac-GVRAKAGVRN[Nle]FKSESY-OH; C-terminus assumed)
Affinity for Sortilin, in words [3]: better affinity for Sortilin than Neurotensin

CC(=O)N[C@@H](Cc1ccc(O)cc1)C(=O)N[C@@H](CCCCN)C(=O)N[C@@H](CO)C(=O)N[C@@H](CC(C)C)C(=O)N[C@@H](CCCNC(=N)N)C(=O)N[C@@H](CCCNC(=N)N)C(=O)N[C@@H](CCCCN)C(=O)N[C@@H](C)C(=O)N1CCC[C@H]1C(=O)N[C@@H](CCCNC(=N)N)C(=O)N[C@@H](Cc1c[nH]c2ccccc12)C(=O)N[C@@H](CC(=O)O)C(=O)N[C@@H](C)C(=O)N1CCC[C@H]1C(=O)N[C@@H](CC(C)C)C(=O)N[C@@H](CCCNC(=N)N)C(=O)N[C@@H](CC(=O)O)C(=O)N1CCC[C@H]1C(=O)N[C@@H](C)C(=O)N[C@@H](CC(C)C)C(=O)N[C@@H](CCCNC(=N)N)C(=O)N[C@@H](CCC(N)=O)C(=O)N[C@@H](CC(C)C)C(=O)N[C@@H](CC(C)C)C(=O)O [KBP-201]
Reduction of TNF-α-induced NFκB phosphorylation [4]: about 30% | Affinity for Sortilin, in words [3]: better affinity for Sortilin than Neurotensin | Affinity for Sortilin, in words ([3]; listed as KB-P201): better affinity | Reduction of TNF-α-induced phosphorylation of IkB, maximal effect [5]: 40%

Acetyl-GVRAK(curcumin)AGVRN(Nle)FK(curcumin)SESY [KBC-106]
Inhibition of TNFα-induced COX-2 expression, comparison of two conjugates [6]: more potent than free Curcumin | Stability (absorbance over time) [2]: more stable

RAP: receptor-associated protein, a Sortilin ligand [reference compound]
Kd ([3]; Sortilin immobilized on CM5 chip, KD calculated with Bia Evaluation software from sensorgrams of FIGS. 13-16, read-out: Affinity (KD)): 4.2 nM
